# What was measured:
# beta1-adrenoceptor = beta1-adrenoceptor (Homo sapiens, UniProt P08588); assay: 3H-CGP12177 whole-cell binding, CHO cells expressing human beta1-adrenoceptor; parameters: expressed in transfected cells; host or cells: CHO cells; conditions: 3H-CGP 12177 whole cell binding, mean ± s.e.mean; for Kd: log KD, read-out: Beta 1 Log KD (converted)
# Source text: (§1) The selectivity of a ligand is given by the ratio of beta-1 to beta-2 KD.
# human beta3-adrenoceptor = target: T1, human beta3-adrenoceptor (Homo sapiens, UniProt P13945); assay: 3H-CGP12177 whole-cell binding, CHO cells expressing human beta3-adrenoceptor; conditions: 3H-CGP 12177 whole cell binding, log KD, mean ± s.e.mean, read-out: Beta 3 Log KD (converted)
# T1 construct: expressed in transfected cells; host or cells: CHO cells
# T1 sequence (P13945 whole entry): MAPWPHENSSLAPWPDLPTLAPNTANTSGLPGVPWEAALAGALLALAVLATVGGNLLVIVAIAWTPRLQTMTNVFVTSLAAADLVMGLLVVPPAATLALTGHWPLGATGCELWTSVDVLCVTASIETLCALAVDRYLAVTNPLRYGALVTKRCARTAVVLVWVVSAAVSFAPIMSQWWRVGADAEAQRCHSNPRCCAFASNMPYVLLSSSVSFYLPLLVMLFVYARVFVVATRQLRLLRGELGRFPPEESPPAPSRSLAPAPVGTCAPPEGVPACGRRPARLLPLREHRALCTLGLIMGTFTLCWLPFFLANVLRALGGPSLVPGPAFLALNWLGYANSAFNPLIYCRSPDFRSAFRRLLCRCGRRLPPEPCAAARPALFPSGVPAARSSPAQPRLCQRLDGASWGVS
# human beta2-adrenoceptor = target: T2, human beta2-adrenoceptor (Homo sapiens, UniProt P07550); assay: 3H-CGP12177 whole-cell binding, CHO cells expressing human beta2-adrenoceptor; conditions: 3H-CGP 12177 whole cell binding, mean ± s.e.mean; for Kd: log KD, read-out: Beta 2 Log KD (converted)
# T2 construct: expressed in transfected cells; host or cells: CHO cells
# T2 sequence (P07550 whole entry): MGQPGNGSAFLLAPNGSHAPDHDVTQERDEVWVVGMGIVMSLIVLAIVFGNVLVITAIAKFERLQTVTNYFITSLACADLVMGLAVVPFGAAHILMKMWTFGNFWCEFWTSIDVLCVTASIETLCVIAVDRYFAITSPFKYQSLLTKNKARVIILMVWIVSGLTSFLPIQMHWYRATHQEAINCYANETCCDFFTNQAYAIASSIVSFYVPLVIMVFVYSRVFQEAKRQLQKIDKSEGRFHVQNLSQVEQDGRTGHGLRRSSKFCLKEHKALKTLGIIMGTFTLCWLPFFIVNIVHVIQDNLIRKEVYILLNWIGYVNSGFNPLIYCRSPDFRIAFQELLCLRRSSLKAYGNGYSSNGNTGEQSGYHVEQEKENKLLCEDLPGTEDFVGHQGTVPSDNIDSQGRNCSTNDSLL
# Source text: as §1
# Chain of beta1-adrenoceptor (P08588 whole entry): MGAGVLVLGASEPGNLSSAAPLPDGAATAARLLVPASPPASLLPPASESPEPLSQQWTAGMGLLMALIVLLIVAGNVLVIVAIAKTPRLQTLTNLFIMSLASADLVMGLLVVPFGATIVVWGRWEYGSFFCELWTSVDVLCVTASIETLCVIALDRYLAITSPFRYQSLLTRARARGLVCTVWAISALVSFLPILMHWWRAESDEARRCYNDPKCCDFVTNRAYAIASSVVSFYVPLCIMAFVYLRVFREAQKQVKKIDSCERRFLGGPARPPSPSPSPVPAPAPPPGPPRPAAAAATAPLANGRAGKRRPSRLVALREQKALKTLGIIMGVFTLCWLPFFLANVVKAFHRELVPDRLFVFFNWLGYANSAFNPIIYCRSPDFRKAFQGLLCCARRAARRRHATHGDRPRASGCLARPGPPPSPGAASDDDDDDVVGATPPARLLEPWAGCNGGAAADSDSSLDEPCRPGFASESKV
SMILES,Beta 1 Log KD (beta1-adrenoceptor),Kd (human beta3-adrenoceptor) [µM],Kd (human beta2-adrenoceptor) [µM],melting point [°C],Kd (beta1-adrenoceptor) [µM],Beta 2 Log KD (human beta2-adrenoceptor)
O=C(NCCNCC(O)COc1ccc(OCCOCCc2ccc(F)cc2)cc1)Nc1ccc(O)cc1 (stereo not shown) [46b],−8.50 ± 0.07,1.12,1.02,113 to 115,,
O=C(NCCNCC(O)COc1ccc(OCCOC2CCCC2)cc1)Nc1ccccc1 (stereo not shown) [47a],,24,3.02,109 to 115,0.0126,
Cc1ccccc1NC(=O)NCCNCC(O)COc1ccc(OCCOC2CCCC2)cc1 (stereo not shown) [47b],−7.33 ± 0.03,17.4,,114 to 115,,−6.27 ± 0.02
Cc1cccc(NC(=O)NCCNCC(O)COc2ccc(OCCOC3CCCC3)cc2)c1 (stereo not shown) [47c],−8.04 ± 0.04,17.4,,,,−6.06 ± 0.03
Cc1ccc(NC(=O)NCCNCC(O)COc2ccc(OCCOC3CCCC3)cc2)cc1 (stereo not shown) [47d],−7.76 ± 0.04,22.9,,142 to 144,,
COc1ccccc1NC(=O)NCCNCC(O)COc1ccc(OCCOC2CCCC2)cc1 (stereo not shown) [47e],−7.02 ± 0.04,13.8,,78 to 83,,−5.93 ± 0.02
COc1cccc(NC(=O)NCCNCC(O)COc2ccc(OCCOC3CCCC3)cc2)c1 (stereo not shown) [47f],−7.76 ± 0.03,17.4,,103 to 110,,−6.05 ± 0.03
COc1ccc(NC(=O)NCCNCC(O)COc2ccc(OCCOC3CCCC3)cc2)cc1 (stereo not shown) [47g],−7.80 ± 0.04,20,,121 to 125,,−5.86 ± 0.04
O=C(NCCNCC(O)COc1ccc(OCCOC2CCCC2)cc1)Nc1ccccc1F (stereo not shown) [47h],−7.82 ± 0.03,21.4,,115 to 117,,−5.94 ± 0.04
O=C(NCCNCC(O)COc1ccc(OCCOC2CCCC2)cc1)Nc1cccc(F)c1 (stereo not shown) [47i],−8.17 ± 0.03,18.6,,108 to 110,,−6.54 ± 0.02
O=C(NCCNCC(O)COc1ccc(OCCOC2CCCC2)cc1)Nc1ccc(F)cc1 (stereo not shown) [47j],−7.70 ± 0.04,24.5,,130 to 133,,−5.92 ± 0.09
O=C(NCCNCC(O)COc1ccc(OCCOC2CCCC2)cc1)Nc1ccccc1Cl (stereo not shown) [47k],−7.11 ± 0.03,18.6,,99 to 103,,
O=C(NCCNCC(O)COc1ccc(OCCOC2CCCC2)cc1)Nc1ccc(Cl)cc1 (stereo not shown) [47m],−7.95 ± 0.05,13.5,,133 to 140,,−5.91 ± 0.86
O=C(NCCNCC(O)COc1ccc(OCCOC2CCCC2)cc1)Nc1ccccc1Br (stereo not shown) [47n],−7.11 ± 0.01,14.8,,,,−6.10 ± 0.03
O=C(NCCNCC(O)COc1ccc(OCCOC2CCCC2)cc1)Nc1cccc(Br)c1 (stereo not shown) [47o],−7.92 ± 0.05,10.2,,120 to 122,,
O=C(NCCNCC(O)COc1ccc(OCCOC2CCCC2)cc1)Nc1ccc(Br)cc1 (stereo not shown) [47p],−7.77 ± 0.04,9.33,,148 to 150,,−5.86 ± 0.04

SMILES,Beta 1 Log KD (beta1-adrenoceptor),Kd (human beta3-adrenoceptor) [µM],Kd (human beta2-adrenoceptor) [µM],melting point [°C],Kd (beta1-adrenoceptor) [µM],Beta 2 Log KD (human beta2-adrenoceptor)
O=C(NCCNCC(O)COc1ccc(OCCOC2CCCC2)cc1)Nc1ccccc1C(F)(F)F (stereo not shown) [47q],−6.94 ± 0.01,24,,128 to 130,,−5.84 ± 0.02
O=C(NCCNCC(O)COc1ccc(OCCOC2CCCC2)cc1)Nc1cccc(C(F)(F)F)c1 (stereo not shown) [47r],−7.77 ± 0.06,11.5,,96 to 98,,−5.86 ± 0.06
O=C(NCCNCC(O)COc1ccc(OCCOC2CCCC2)cc1)Nc1ccc(C(F)(F)F)cc1 (stereo not shown) [47s],−7.70 ± 0.04,11.7,,134 to 136,,−5.76 ± 0.04
"O=C(NCCNCC(O)COc1ccc(OCCOC2CCCC2)cc1)Nc1cccc(O)c1 (stereo not shown) [47u, 1-(2-(3-(4-(2-(Cyclopentyloxy)ethoxy)phenoxy)-2-hydroxypropylamino)ethyl)-3-(3-hydroxyphenyl)urea]",−7.89 ± 0.06,6.92,,,,−5.85 ± 0.06
O=C(NCCNCC(O)COc1ccc(OCCOC2CCCC2)cc1)Nc1ccc(O)cc1 (stereo not shown) [47v],,8.32,,135 to 138,0.00692,−5.45 ± 0.10
"O=C(NCCNCC(O)COc1ccc(OCCOC2CCCC2)cc1)Nc1ccc(F)c(F)c1 (stereo not shown) [54a, 1-(2-(3-(4-(2-(Cyclopentyloxy)ethoxy)phenoxy)-2-hydroxypropylamino)ethyl)-3-(3,4-difluorophenyl)urea]",,8.91,1.32,113 to 115,0.00955,
O=C(NCCNCC(O)COc1ccc(OCCOC2CCCC2)cc1)c1ccccc1O (stereo not shown) [54d],,4.57,0.501,,0.0324,
O=C(NCCNCC(O)COc1ccc(OCCOC2CCCC2)cc1)c1cccc(O)c1 (stereo not shown) [54e],,1.1,0.282,,0.0309,
O=C(NCCNCC(O)COc1ccc(OCCOC2CCCC2)cc1)c1ccc(O)cc1 (stereo not shown) [54f],,0.513,0.162,,0.00174,
"O=C(Cc1cccc(O)c1)NCCNCC(O)COc1ccc(OCCOC2CCCC2)cc1 (stereo not shown) [54j, N-(2-(3-(4-(2-(cyclopentyloxy)ethoxy)phenoxy)-2-hydroxypropylamino)ethyl)-2-(3-hydroxyphenyl)acetamide]",,2.51,0.0155,,0.00372,
"O=C(Cc1ccccc1)NCCNCC(O)COc1ccc(OCCOC2CCCC2)cc1 (stereo not shown) [compound 49, N-(2-(3-(4-(2-(Cyclopentyloxy)ethoxy)phenoxy)-2-hydroxypropylamino)ethyl)-2-phenylacetamide Hydroformate]",,4.37,0.0537,,0.0038,
"O=C(Nc1ccccc1)OCCNCC(O)COc1ccc(OCCOC2CCCC2)cc1 (stereo not shown) [compound 51, 2-(3-(4-(2-(Cyclopentyloxy)ethoxy)phenoxy)-2-hydroxypropylamino)ethyl phenylcarbamate]",,1.05,0.468,,0.0295,
"OC(CNCCNC(=S)Nc1ccccc1)COc1ccc(OCCOC2CCCC2)cc1 (stereo not shown) [compound 52, 1-(2-(3-(4-(2-(Cyclopentyloxy)ethoxy)phenoxy)-2-hydroxypropylamino)ethyl)-3-phenylthiourea]",,7.08,0.692,,0.0813,
"O=S(=O)(Cc1ccccc1)NCCNCC(O)COc1ccc(OCCOC2CCCC2)cc1 (stereo not shown) [compound 53, N-(2-(3-(4-(2-(Cyclopentyloxy)ethoxy)phenoxy)-2-hydroxypropylamino)ethyl)-benzylsulfonamide]",,19.1,0.933,,0.0257,
"O=C(NCCNCC(O)COc1ccc(OCCOC2CCCC2)cc1)Nc1ccc(O)c(F)c1 (stereo not shown) [compound 54, 1-(2-(3-(4-(2-(Cyclopentyloxy)ethoxy)phenoxy)-2-hydroxypropylamino)ethyl)-3-(3-fluoro-4-hydroxyphenyl)urea Hydroformate]",,10.2,2.57,,0.00851,
